Results reported in US20150018311A1, “THERAPEUTIC BORON-CONTAINING COMPOUNDS” (priority 2012, published 2015).

Key:
Assay in all cases: Growth in liquid media in presence of test compound
Format in all cases: cell-based
[1] = system: Mycobacterium tuberculosis (H37Rv)
[2] = system: Staphylococcus aureus (ATCC 25923)
Description: (§1) Test organisms used were the bacterial strains Escherichia coli (ATCC 25922), Pseudomonas aeruginosa (ATCC 27853), Staphylococcus aureus (ATCC 25923), Streptococcus pyogenes (ATCC 19615), and Mycobacterium tuberculosis (H37Rv), and the yeast strain Candida albicans (ATCC 90028).
(§2) The liquid media used for growth were Luria-Bertani (Becton Dickinson, Sparks, Md.) and Mueller-Hinton (bio-Merieux, Paris, France) broths, but with Saburo medium for Candida and Middlebrook 7H9 medium (Difco) for mycobacteria.
(§3) The strains were grown at 37° C. and after suitable cell concentrations had been reached, 100 μL of each cell suspension was added to a tube with growth media and test compound. Cultivation of the bacteria was then carried out in the presence of each test compound at 37° C. and the tubes examined for visible growth. The compounds were tested at concentrations of either 500 mg/l, 50 mg/l or 5 mg/l. This assay was repeated twice.
(§4) Some compounds were only tested against some test organisms. It will be appreciated that the charge of these molecules will depend on the environment, some of the Examples are shown with a suitable counter ion, some without.

[3] = system: Escherichia coli (ATCC 25922)
Description: as §1, §2, §3, §4

[4] = system: Pseudomonas aeruginosa (ATCC 27853)
Description: as §1, §2, §3, §4

[5] = system: Candida albicans (ATCC 90028)
Description: as §1, §2, §3, §4

[6] = system: Streptococcus pyogenes (ATCC 19615)
Description: as §1, §2, §3, §4

Row | SMILES | Growth in the presence of test compound, M. tuberculosis ([1]; 5 mg/L) | Growth in the presence of test compound, M. tuberculosis ([1]; 50 mg/L) | Growth in the presence of test compound, M. tuberculosis ([1]; 500 mg/L) | Growth in the presence of test compound, S. aureus ([2]; 5 mg/L) | Growth in the presence of test compound, S. aureus ([2]; 50 mg/L) | Growth in the presence of test compound, S. aureus ([2]; 500 mg/L) | Growth in the presence of test compound, E. coli ([3]; 5 mg/L) | Growth in the presence of test compound, E. coli ([3]; 50 mg/L) | Growth in the presence of test compound, E. coli ([3]; 500 mg/L) | Growth in the presence of test compound, P. aeruginosa ([4]; 5 mg/L) | Growth in the presence of test compound, P. aeruginosa ([4]; 50 mg/L) | Growth in the presence of test compound, P. aeruginosa ([4]; 500 mg/L) | Growth in the presence of test compound, C. albicans ([5]; 5 mg/L) | Growth in the presence of test compound, C. albicans ([5]; 50 mg/L) | Growth in the presence of test compound, C. albicans ([5]; 500 mg/L) | Growth in the presence of test compound, S. pyogenes ([6]; 5 mg/L) | Growth in the presence of test compound, S. pyogenes ([6]; 50 mg/L) | Growth in the presence of test compound, S. pyogenes ([6]; 500 mg/L)
1 | Cl.Cl.NCCCC[C@@H](N)C(=O)NC[C@@H](Cc1ccc(OC(F)(F)F)cc1)B(O)O [Compound 43] | + | + | − | + | + | − | + | + | − | + | + | − | + | + | ± | + | + | −
2 | CC1(C)C2CC3OB(C(CNC(=O)C(N)CCCCN)Cc4ccc(F)cc4)OC3(C)C1C2.Cl.Cl (stereo not drawn) [Compound 51] | + | − | − | + | + | − | + | + | − | + | + | − | + | + | − | + | + | −
3 | Cl.Cl.NCCCC[C@H](N)C(=O)NC[C@@H](Cc1ccc(F)cc1)B(O)O [Compound 46] | − | − | − | + | + | + | + | + | + | + | + | + | + | + | ± | + | + | +
4 | CC1(C)C2CC3OB(C(CNC(=O)C(N)CCCCN)Cc4ccc(OC(F)(F)F)cc4)OC3(C)C1C2.Cl.Cl (stereo not drawn) [Compound 47] | + | − | − | + | + | − | + | + | − | + | + | − | + | + | − | + | + | −
5 | Cl.Cl.NCCCC[C@H](N)C(=O)NC[C@@H](Cc1ccc(OC(F)(F)F)cc1)B(O)O [Compound 52] | ± | ± | − | + | + | + | + | + | + | + | + | + | + | + | − | + | + | ±
6 | CC1(C)C2CC3OB([C@H](CCc4ccccc4)CNC(=O)[C@@H](N)CCCCN)O[C@]3(C)C1C2 (stereo partly drawn) [Compound 19] | + | − | − | + | + | ± | + | + | − | + | + | − | + | + | − | + | + | −
7 | C[C@H](N)C(=O)NC[C@H](Cc1ccccc1)B1OC2CC3CC(C3(C)C)[C@]2(C)O1 (stereo partly drawn) [Compound 15] | + | − | − | + | + | − | + | + | ± | + | + | + | + | + | − | + | + | +
8 | CC1(C)C2CC3OB(CC(Cc4ccccc4)NC(=O)C(N)CCCCN)OC3(C)C1C2 (stereo not drawn) [Compound 44] | + | + | − | + | + | − | + | + | − | + | + | − | + | + | ± | + | + | −
9 | CC1(C)C2CC3OB(CC(CCc4ccccc4)NC(=O)C(N)CCCCN)OC3(C)C1C2 (stereo not drawn) [Compound 7] | + | + | − | + | + | − | + | + | − | + | + | ± | + | + | − | + | + | −
10 | C[C@@H](B1OC2CC3CC(C3(C)C)[C@@]2(C)O1)[C@@H](Cc1ccccc1)NC(=O)[C@@H]1CCCN1 (stereo partly drawn) [Compound 29] | + | + | − | + | + | − |  |  |  | + | + | ± | + | + | ± | + | + | −
